From patent US6649647B1, “Trioxane derivatives” (priority 1998, dated 2003)

Experiments:
Format in all cases: cell-based
[1] = system: Rat 6 subclone of the immortalized F2408 embryo cell line (R6); experiment: Screening for cytotoxicity, cell count by Coulter Counter, R6 cells; conditions: for LD50 (Day 3) R6: day 3 after addition; for LD50 (Day 6) R6: day 6 after addition
Protocol: (§1) Compounds of the invention were screened against Rat 6 subclone of the immortalized F2408 embryo cell line, and Rat 6 (R6T24) cells transfected and transformed by a c-H-ras oncogene. The screening involved placing the R6 and R6T24 cell lines plated at 10^3 cells per well into a 12-well microtiter culture plate for 24 hours. The compounds were added at final concentrations from 0.1-100 μM, and cells were trypsized and counted by Coulter Counter at day 3 and day 6 after the addition. Untreated cells were assigned a survival value of 100%.

[2] = system: Rat 6 (R6T24) cells transfected and transformed by a c-H-ras oncogene; experiment: Screening for cytotoxicity, cell count by Coulter Counter, R6T24 cells; conditions: R6T24 cell line; for LD50 (Day 3) R6T24: day 3 after addition; for LD50 (Day 6) R6T24: day 6 after addition
Protocol: as §1

DNA within the cell = experiment: DNA comet assay; conditions: cells after 3 or 6 day treatment
From the text: In this technique, cells are embedded in agarose gel on a frosted slide after 3 or 6 day treatment, the cells are then lysed and submitted to electrophoresis. The DNA was stained after electrophoresis by ethidium bromide and images of the DNA “comets” were obtained by using an image analysis software package.

[3] = system: human colon cancer cell line SW 480; experiment: Growth inhibition assay (MTT), SW 480; conditions: Table VI, 6 days incubation
Protocol: (§2) As another example of evaluation of cytotoxicity, cancer cell lines were also used for a growth inhibition assay. The human colon cancer cell lines SW 480 and HT 29 and the murine melanoma cell line B16F10 were used. […] After confluent growth, the cells were trypsinated and resuspended in RPMI plus 10% FCS to a cell concentration of 50000 cells per ml in case of colon cancer cell lines and 20000 in case of B16F10. 100 μl of this cell suspension were transferred in each well of a 96 well microtiter plate and incubated for 1 day at 37° C. in a CO2-incubator. Subsequently, further 100 μl RPMI medium and 1 μl of a DMSO solution, containing the artemisinin derivatives were added. The growth inhibition was estimated after 6 days incubation at 36° C. using the MTT assay.
(§3) 25 μl MTT solution (3-(4,5-dimethylthiazol-2-yl)-2,5-diphenyltetrazolium-bromid) of a starting concentration of 5 mg/ml H2O were added and incubated at 37° C. for 5 h. Subsequently, 100 μl iso-propanol per well were added. After 15 min incubation 100 μl H2O were added. After 30 min shaking, the extinction was measured at 595 nm using a ELISA-Multiplate Reader.

[4] = system: human colon cancer cell line HT 29; experiment: Growth inhibition assay (MTT), HT 29; conditions: Table VI, 6 days incubation
Protocol: as §2, §3

[5] = system: murine melanoma cell line B16F10; experiment: Growth inhibition assay (MTT), B16F10; conditions: Table VI, 6 days incubation
Protocol: as §2, §3

| Compound | LD50 (Day 3) R6 ([1]; Table V) | LD50 (Day 6) R6 ([1]; Table V) | LD50 (Day 3) R6 ([1]; Table VA) | LD50 (Day 6) R6 ([1]; Table VA) | LD50 (Day 3) R6T24 ([2]; Table V) | LD50 (Day 6) R6T24 ([2]; Table V) | LD50 (Day 3) R6T24 ([2]; Table VA) | LD50 (Day 6) R6T24 ([2]; Table VA) | binding to DNA (DNA comet assay technique) (DNA within the cell) | LD50 SW 480 [3] | LD50 HT 29 [4] | LD50 B16F18 [5] | DNA damage in the DNA comet assay (DNA within the cell) |
| --- | --- | --- | --- | --- | --- | --- | --- | --- | --- | --- | --- | --- | --- |
| CC1CCC2[C@@H](C)C(O)OC3O[C@]4(C)CCC1C32OO4 (stereo partly drawn) [Dihydroartemisinin, dihydroartemisinin, reference compound] | 1.64 µM | 0.86 µM | 1.64 µM | 0.86 µM | 2.22 µM | 0.24 µM | 2.22 µM | 0.24 µM | does not bind to DNA | – | – | – | – |
| C[C@@H]1CC[C@H]2[C@@H](C)C(Nc3ccccc3)O[C@@H]3O[C@@]4(C)CC[C@@H]1[C@]32OO4 (stereo partly drawn) [Example 30] | 0.31 µM | 0.26 µM | 0.31 µM | 0.26 µM | 0.24 µM | 0.26 µM | 0.24 µM | 0.26 µM | – | 100 nM | 600 nM | 400 nM | – |
| CC1CCC2C(C)C(c3ccccc3)OC3OC4(C)CCC1C32OO4 (stereo not drawn) [Example 2, 10β-(phenyl)dihydroartemisinin] | 0.61 µM | 0.475 µM | 0.61 µM | 0.475 µM | 3.05 µM | 0.54 µM | 3.05 µM | 0.54 µM | – | 300 nM | 800 nM | 500 nM | – |
| CC1CCC2C(CN3CCc4ccccc43)C(=O)OC3OC4(C)CCC1C32OO4 (stereo not drawn) [Example 22, 16-(N-1′-indolinyl)artemisinin] | 24.77 µM | 29.24 µM | 25 µM | 29 µM | 11.38 µM | 7.45 µM | 12 µM | 7.5 µM | – | – | – | – | strong DNA damage |
| CC1CCC2C(C)C(OCC(F)(F)F)OC3OC4(C)CCC1C32OO4 (stereo not drawn) [Example 11, 10β-[(2′,2′,2′-trifluoroethyl)oxy]-dihydroartemisinin] | 1.56 µM | 0.87 µM | 1.56 µM | 0.87 µM | 3.31 µM | 0.39 µM | 3.31 µM | 0.39 µM | – | 500 nM | 1500 nM | 500 nM | – |
| 10α and β-[(2′-naphthylmethyl)oxy]dihydroartemisinin [Example 13] | 0.14 µM | 0.037 µM | – | – | 0.12 µM | 0.02 µM | – | – | – | – | – | – | strong DNA damage |
| C[C@@H]1CC[C@H]2[C@@H](C)C(c3cc4ccccc4c4ccccc34)O[C@@H]3O[C@@]4(C)CC[C@@H]1[C@]32OO4 (stereo partly drawn) [Example 56] | – | – | 0.38 µM | 0.26 µM | – | – | 0.24 µM | 0.21 µM | – | 200 nM | 300 nM | 300 nM | – |
| 10α and β-[(2′-naphthylmethyl)oxy]dihydroartemisinin [Example 13α] | – | – | 0.14 µM | 0.037 µM | – | – | 0.12 µM | 0.02 µM | – | 200 nM | 500 nM | 300 nM | – |
| C[C@@H]1CC[C@H]2[C@@H](C)C(=O)N(Cc3ccccc3F)[C@@H]3O[C@@]4(C)CC[C@@H]1[C@@]23OO4 [Example 15, 11-aza-N-(2-fluorobenzyl)artemisinin] | 22.70 µM | >50.00 µM | >50 µM | >50 µM | >50.00 µM | 1.69 µM | 22.7 µM | 1.69 µM | – | 200 nM | 1500 nM | 300 nM | – |
| COc1ccc(C2OC3OC4(C)CCC5C(C)CCC(C2C)C35OO4)c(OC)c1 (stereo not drawn) [Example 4, 10-(2′,4′-dimethoxyphenyl)dihydroartemisinin] | 1.37 µM | 0.29 µM | 1.37 µM | 0.29 µM | 1.09 µM | 0.13 µM | 1.09 µM | 0.13 µM | – | – | – | – | strong DNA damage |
| CC1CCC2C(C)C(Oc3ccnc4cc(C(F)(F)F)ccc34)OC3OC4(C)CCC1C32OO4 (stereo not drawn) [Example 12, 10β-[4′-(7′-trifluoromethyl-quinolinoxy)]dihydroartemisinin] | – | – | – | – | – | – | – | – | – | 150 nM | 2000 nM | 300 nM | – |
| COc1ccccc1C1O[C@@H]2O[C@@]3(C)CC[C@H]4[C@H](C)CC[C@@H]([C@H]1C)[C@@]24OO3 (stereo partly drawn) [Example 29] | – | – | – | – | – | – | – | – | – | >10000 nM | >10000 nM | >10000 nM | – |
